Columns and labels:
UBL-5 = molecular target: T1, UBL-5 (Caenorhabditis elegans, UniProt P91302); assay: Thermal proteome profiling (TPP); type: binding; settings: compound 50 μM, C. elegans lysate, 37-67 °C
T1 construct: from tissue; host or cells: whole-worm lysate of C. elegans N2 (young adults / L4s)

PGP-1 = molecular target: T2, PGP-1 (Caenorhabditis elegans, UniProt P34712); assay: Thermal proteome profiling (TPP); type: binding; settings: compound 50 μM, C. elegans lysate, 37-67 °C
T2 construct: from tissue; host or cells: whole-worm lysate of C. elegans N2 (young adults / L4s), NP-40 extract

[1] = HepG2 cytotoxicity (CellTiter-Glo); type: cell-based; settings: human, HepG2 cells, read-out: half-maximal cytotoxic concentration (CC50)
Experimental: The cytotoxicity of UMW-9729 and six key derivatives (12, 14, 15, 16, 18 and 25) on human hepatoma (HepG2) cells was evaluated as described previously ([Gilson et al., 2017]). In short, HepG2 cells were first cultured (in an incubator at 5 % (v/v) CO2, 37 °C, >90 % humidity) in Dulbecco's modified Eagle's medium (DMEM) supplemented with 5 % foetal bovine serum (FBS). Test compounds were serially-diluted (10-points, 2-fold serial dilution, top concentration of 50 μM) in DMEM + 10 % FBS, adjusted to a 0.5 % DMSO concentration and arrayed across a 384-well plate. Bortezomib (10 μM) was used as a positive control; 0.5 % DMSO was used as a negative control. HepG2 cells (1 × 10^3 cells per 50 μL of DMEM + 10 % FBS) were then seeded into wells of the assay plate; plates were the incubated (5 % (v/v) CO2, 37 °C, >90 % humidity) for 48 h. Cell proliferation was subsequently determined using CellTiter-Glo (Promega) and normalised using the negative-controls to calculate as a percentage. All compounds were tested in duplicate. The half-maximal cytotoxic (CC50) values were calculated by the Dotmatics (v.5.3) and Spotfire (v.7.11.1) software using a nonlinear regression four-parameter fit analysis.

B0361.6 = molecular target: T3, B0361.6 (Caenorhabditis elegans, UniProt Q10950); assay: Thermal proteome profiling (TPP); type: binding; settings: compound 50 μM, C. elegans lysate, 37-67 °C
T3 construct: from tissue; host or cells: whole-worm lysate of C. elegans N2 (young adults / L4s)

[2] = test system: human hepatoma (HepG2) cells; assay: HepG2 mitotoxicity (galactose medium, crystal violet staining); type: cell-based; settings: 48 h
Experimental: The mitotoxicity of UMW-9729 and six key derivatives (12, 14, 15, 16, 18 and 25) on human hepatoma (HepG2) cells was evaluated as described previously using an established protocol ([Swiss and Will, 2011]; [Kamalian et al., 2015]; [Śliwka et al., 2016]). Test compounds were serially-diluted (7-points, 2-fold serial dilution, 50 μM top concentration) in DMEM (Thermo Fisher Scientific, USA) with GlutaMax™ supplemented with 25 mM D-galactose, 10 % heat-inactivated FBS, 100 IU/mL of penicillin, 100 μg/mL of streptomycin and 0.25 μg/mL of amphotericin B (denoted DMEM*). Monepantel and moxidectin (prepared in the same manner as the test compounds) were included as reference compounds. M-666 ([…]; [Le et al., 2018]) was used as a positive control; 0.25 % DMSO was used as a negative control. HepG2 cells were seeded into wells of a 96-well plate in 80 μL of DMEM* (at 1 × 10^5 cells per well) and allowed to adhere for 16 h (5 % (v/v) CO2, 37 °C, >90% humidity)prior to incubation with individual compounds, at a final volume of 100 μL. […] Following 48 h of incubation with compounds, cell viability was determined by crystal violet staining ([Śliwka et al., 2016]). The absorbance (595 nm) of treated cells was normalised using the negative-controls to calculate the cell viability. […]

UNC-11 = molecular target: T4, UNC-11 (Caenorhabditis elegans, UniProt Q9XZI6); assay: Thermal proteome profiling (TPP); type: binding; settings: compound 50 μM, C. elegans lysate, 37-67 °C
T4 construct: from tissue; host or cells: whole-worm lysate of C. elegans N2 (young adults / L4s)

[3] = test system: adult females of Haemonchus contortus; assay: Motility of adult female H. contortus in vitro; type: cell-based; settings: 40 μM; 24 h of incubation; normalised to negative control
Experimental: Adult H. contortus were collected from the abomasa of sheep infected for 10 weeks, washed extensively with phosphate-buffered saline (PBS, pH 7.4) and subsequently in RPMI 1640 media supplemented with final concentrations of 2 mM L-glutamine, 100 IU/mL of penicillin, 100 μg/mL of streptomycin and 0.25 μg/mL of amphotericin B (Thermo Fisher Scientific, Scoresby, VIC, Australia; this supplemented RPMI was designated RPMI*). Female and male worms were collected and separated immediately prior to compound testing.
The activity of UMW-9729 and six derivatives (12, 14, 15, 16, 18 and 25) was assessed on adult female specimens of H. contortus in an established assay ([Taki et al., 2020]). The compound was added in triplicate to the wells of a 24-well plate (cat. no. 3524; Corning, USA) at a concentration of 40 μM in 500 μL of RPMI* (RPMI supplemented with final concentrations of 2 mM L-glutamine, 100 IU/mL of penicillin, 100 μg/mL of streptomycin and 0.25 μg/mL of amphotericin B; Thermo Fisher Scientific, Scoresby, VIC, Australia). Two positive-control compounds, monepantel and moxidectin, and a negative control containing 1 % (v/v) DMSO only, were included in triplicates on the same plate. Three adult females were added to each of the triplicate wells containing either the test compound or the controls and placed in a CO2 incubator (10 % (v/v) CO2, 40 °C, >90 % relative humidity) for 1 day. A video recording (30 s) of each well was taken at 3 h, 6 h, 12 h and 24 h during the total incubation period to assess the reduction in worm motility, which was scored as 3 (“good”), 2 (“low”), 1 (“very low”) or 0 (“no movement”; cf. [Taki et al., 2020]). For each test or control compound, the motility scores for each of the triplicate wells were calculated, normalised with reference to the negative control (100 % motility) and recorded as a percentage.

TRXR-1 = molecular target: T5, TRXR-1 (Caenorhabditis elegans, UniProt Q17745); assay: Thermal proteome profiling (TPP); type: binding; settings: compound 50 μM, C. elegans lysate, 37-67 °C
T5 construct: from tissue; host or cells: whole-worm lysate of C. elegans N2 (young adults / L4s)

C. elegans young adults = test system: C. elegans young adults; design: method as in Taki et al., 2021a; settings: previous HitFinder library screen, ref Taki et al., 2021a, cited from earlier work

T1 sequence (P91302 whole entry): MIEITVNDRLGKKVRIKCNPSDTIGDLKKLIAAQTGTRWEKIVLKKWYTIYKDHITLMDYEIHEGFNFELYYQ
T5 sequence (Q17745 whole entry): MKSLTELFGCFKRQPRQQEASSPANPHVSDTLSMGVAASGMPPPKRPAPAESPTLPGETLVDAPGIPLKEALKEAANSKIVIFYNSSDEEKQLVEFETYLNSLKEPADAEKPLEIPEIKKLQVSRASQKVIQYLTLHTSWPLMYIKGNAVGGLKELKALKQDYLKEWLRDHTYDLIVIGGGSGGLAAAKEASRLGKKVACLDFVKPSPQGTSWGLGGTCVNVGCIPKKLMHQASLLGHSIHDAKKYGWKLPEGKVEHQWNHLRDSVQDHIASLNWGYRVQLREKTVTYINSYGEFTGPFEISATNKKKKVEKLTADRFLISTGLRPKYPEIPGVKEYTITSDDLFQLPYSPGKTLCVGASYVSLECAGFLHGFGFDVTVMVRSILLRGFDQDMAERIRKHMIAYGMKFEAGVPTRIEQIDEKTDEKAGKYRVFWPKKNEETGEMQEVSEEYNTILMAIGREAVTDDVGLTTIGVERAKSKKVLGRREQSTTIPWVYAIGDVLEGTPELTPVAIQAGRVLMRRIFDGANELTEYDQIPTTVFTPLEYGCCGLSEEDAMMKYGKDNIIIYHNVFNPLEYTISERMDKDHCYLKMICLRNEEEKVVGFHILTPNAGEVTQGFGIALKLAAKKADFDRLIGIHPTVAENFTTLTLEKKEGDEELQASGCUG
T4 sequence (Q9XZI6 whole entry): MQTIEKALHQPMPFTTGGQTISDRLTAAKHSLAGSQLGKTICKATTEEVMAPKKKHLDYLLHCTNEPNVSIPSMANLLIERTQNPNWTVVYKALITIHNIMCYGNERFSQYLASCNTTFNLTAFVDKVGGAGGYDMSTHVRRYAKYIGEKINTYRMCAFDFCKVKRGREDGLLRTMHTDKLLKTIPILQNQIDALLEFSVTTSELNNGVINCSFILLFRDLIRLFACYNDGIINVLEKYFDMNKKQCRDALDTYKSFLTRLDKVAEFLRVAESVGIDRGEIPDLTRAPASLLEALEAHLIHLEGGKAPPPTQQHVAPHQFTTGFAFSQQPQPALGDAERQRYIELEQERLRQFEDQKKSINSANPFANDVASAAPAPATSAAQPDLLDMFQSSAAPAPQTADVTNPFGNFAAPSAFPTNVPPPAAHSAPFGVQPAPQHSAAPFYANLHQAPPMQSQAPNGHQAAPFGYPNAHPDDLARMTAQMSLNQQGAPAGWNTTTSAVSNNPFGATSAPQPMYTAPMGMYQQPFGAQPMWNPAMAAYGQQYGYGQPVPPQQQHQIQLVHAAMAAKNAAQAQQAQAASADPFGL
T3 sequence (Q10950 whole entry): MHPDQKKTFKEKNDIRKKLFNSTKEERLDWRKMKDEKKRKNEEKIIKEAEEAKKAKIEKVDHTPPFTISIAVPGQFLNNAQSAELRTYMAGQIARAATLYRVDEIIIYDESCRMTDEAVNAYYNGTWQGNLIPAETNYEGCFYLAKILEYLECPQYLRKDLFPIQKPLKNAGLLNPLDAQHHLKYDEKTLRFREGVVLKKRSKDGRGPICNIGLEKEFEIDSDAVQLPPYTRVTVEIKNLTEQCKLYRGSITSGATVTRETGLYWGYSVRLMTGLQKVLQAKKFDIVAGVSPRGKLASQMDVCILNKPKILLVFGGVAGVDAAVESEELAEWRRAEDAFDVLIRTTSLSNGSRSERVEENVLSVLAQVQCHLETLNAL
T2 sequence (P34712 whole entry): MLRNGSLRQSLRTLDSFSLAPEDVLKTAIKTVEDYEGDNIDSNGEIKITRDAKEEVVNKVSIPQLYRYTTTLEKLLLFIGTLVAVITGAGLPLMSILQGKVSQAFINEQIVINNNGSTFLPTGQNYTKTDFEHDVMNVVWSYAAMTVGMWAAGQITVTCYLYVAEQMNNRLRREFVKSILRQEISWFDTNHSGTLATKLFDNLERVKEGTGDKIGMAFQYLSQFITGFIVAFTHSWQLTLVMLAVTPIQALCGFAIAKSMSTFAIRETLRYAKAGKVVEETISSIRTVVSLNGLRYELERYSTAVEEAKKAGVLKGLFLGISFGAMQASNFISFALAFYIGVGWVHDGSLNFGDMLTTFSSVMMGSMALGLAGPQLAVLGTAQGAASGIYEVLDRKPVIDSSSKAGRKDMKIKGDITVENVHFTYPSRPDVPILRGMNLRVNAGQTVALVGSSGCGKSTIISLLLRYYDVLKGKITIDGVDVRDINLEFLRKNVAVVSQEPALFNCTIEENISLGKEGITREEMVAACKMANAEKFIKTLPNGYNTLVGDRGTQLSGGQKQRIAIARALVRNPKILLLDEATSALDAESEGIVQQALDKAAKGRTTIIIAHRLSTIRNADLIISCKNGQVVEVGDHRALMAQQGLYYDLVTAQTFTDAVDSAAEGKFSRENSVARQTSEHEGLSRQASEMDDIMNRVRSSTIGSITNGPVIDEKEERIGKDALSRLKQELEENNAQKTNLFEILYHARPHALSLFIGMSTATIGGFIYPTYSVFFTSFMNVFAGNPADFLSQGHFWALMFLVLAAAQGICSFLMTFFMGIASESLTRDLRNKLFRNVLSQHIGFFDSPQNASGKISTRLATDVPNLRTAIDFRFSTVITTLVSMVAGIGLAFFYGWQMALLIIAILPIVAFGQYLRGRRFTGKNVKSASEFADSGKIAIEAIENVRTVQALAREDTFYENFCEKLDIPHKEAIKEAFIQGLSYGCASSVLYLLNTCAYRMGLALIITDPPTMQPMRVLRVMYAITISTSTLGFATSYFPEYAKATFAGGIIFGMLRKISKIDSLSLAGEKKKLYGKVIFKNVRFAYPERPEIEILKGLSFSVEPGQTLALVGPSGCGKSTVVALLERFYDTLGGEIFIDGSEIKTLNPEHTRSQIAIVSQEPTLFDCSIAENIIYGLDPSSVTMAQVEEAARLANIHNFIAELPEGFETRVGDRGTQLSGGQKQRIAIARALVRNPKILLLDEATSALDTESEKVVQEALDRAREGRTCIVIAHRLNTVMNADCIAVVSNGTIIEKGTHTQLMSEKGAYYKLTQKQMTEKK

C(#Cc1ccc(-c2ccn[nH]2)cc1)c1ccccc1 [UMW-9729]
F-statistic (UBL-5; NPARC): 34.8
thermal stability of protein in the presence of compound (UBL-5): stabilised
F-statistic (PGP-1; NPARC): 27.4
thermal stability of protein in the presence of compound (PGP-1): stabilised
CC50 at 48 h [1]: > 40 µM
F-statistic (B0361.6; NPARC): 24.2
thermal stability of protein in the presence of compound (B0361.6): stabilised
half-maximal mitotoxic concentration (MC50) [2]: > 40 µM
F-statistic (UNC-11; NPARC): 23.0
thermal stability of protein in the presence of compound (UNC-11): stabilised
reduction of worm motility, adult females of H. contortus [3]: did not
F-statistic (TRXR-1; NPARC): 20.2
thermal stability of protein in the presence of compound (TRXR-1): stabilised
maximum motility inhibition, young adults of C. elegans (C. elegans young adults): 88.9%
IC50 (C. elegans young adults; read-out: half-maximal inhibitory concentration (IC50), motility of young adults of C. elegans): 5.6 µM

From PMC10992699, “Comparative structure activity and target exploration of 1,2-diphenylethynes in Haemonchus contortus and Caenorhabditis elegans” (International Journal for Parasitology: Drugs and Drug …, 2024)
